According to PubChem BioAssay AID588588 (Sanford-Burnham Center for Chemical Genomics, 2011):
Activity calls are given as the source filed them. The rule behind the calls is not given here.

Each compound was assayed against glucose-6-phosphate dehydrogenase-6-phosphogluconolactonase (Plasmodium falciparum 3D7) (assay: inhibition of P. falciparum G6PD activity – biochemical, end-point NADPH detection, orthogonal assay, SAR follow-up (AID 588588)). Settings: recombinant PfG6PD-6PGL, direct NADPH end-point detection.

IC50, inactive:
O=C1COc2ccc(C(=O)NCCN3CCOCC3)cc2N1 > 80 µM
O=C(Nc1nnc(S(=O)(=O)N2CCCc3ccccc32)s1)c1cccc(F)c1 > 80 µM
O=C(Nc1nnc(S(=O)(=O)N2CCCCCC2)s1)c1cccc(Br)c1 > 80 µM
CCN1CCCC1CNC(=O)c1ccc2c(c1)NC(=O)/C(=C/c1ccccc1F)S2 (configuration not stated) > 80 µM
COc1ccc(/C=C2/Sc3ccc(C(=O)NCCN(C)C)cc3NC2=O)cc1 > 80 µM
CCOc1ccc(C(=O)Nc2nnc(S(=O)(=O)N3CCCCCC3)s2)cc1 > 80 µM
Cc1ccc(C(=O)Nc2nnc(S(=O)(=O)N3CCCc4ccccc43)s2)cc1 > 80 µM
Cc1cccc(C(=O)Nc2nnc(S(=O)(=O)N3c4ccccc4CC3C)s2)c1 (configuration not stated) > 80 µM
O=C(Nc1nnc(S(=O)(=O)N2CCCCCC2)s1)c1ccccc1F > 80 µM
CCN(CCNC(=O)c1ccc2c(c1)NC(=O)c1ccccc1S2)c1ccccc1 > 80 µM
CN1CCCC1CCNC(=O)c1ccc2c(c1)NC(=O)/C(=C/c1ccccc1F)S2 (configuration not stated) > 80 µM
CCN1CCCC1CNC(=O)c1ccc2c(c1)NC(=O)/C(=C\c1ccccc1Cl)S2 (configuration not stated) > 80 µM
